Laboratory results published in PubChem BioAssay (NCI).
Several values for one entry are separate records, joined by “and”; a condition that tells them apart may be missing. Equal entries are not always repeated.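 Values below derive from 48-hour exposures of cells grown in 96-well plates, with endpoints linearly interpolated between the two concentrations bracketing the appropriate inhibition level. Abbreviation: GI50, concentration required for 50% inhibition of growth. TGI denotes the concentration required for complete inhibition of growth.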

Key:
Experiment in all cases: NCI anticancer screen, dose series, 48 h
[1] = system: DU-145 prostate
[2] = system: SNB-19 CNS
[3] = system: HOP-62 NSCLC
[4] = system: HS 578T breast
[5] = system: CCRF-CEM leukemia
[6] = system: RXF 393 renal
[7] = system: UACC-257 melanoma
[8] = system: T-47D breast
[9] = system: EKVX NSCLC
[10] = system: CAKI-1 renal

Structure (SMILES) | TGI [1] | TGI [2] [µM] | TGI [3] | TGI [4] | TGI [5] [µM] | TGI [6] | TGI [7] | TGI [8] | TGI [9] [µM] | TGI [10] | GI50 [1] | GI50 [2] | GI50 [3] | GI50 [4] | GI50 [5] | GI50 [6] | GI50 [7] | GI50 [8] | GI50 [9] | GI50 [10]
COc1cccc(/C=C/c2ccnc3ccccc23)c1OC | > 10 µM | > 10 | > 10 µM | > 10 µM | > 10 | > 10 µM | > 10 µM | > 10 µM | > 10 | > 10 µM | – | – | – | – | – | – | – | – | – | –
CCN(CC)c1ccc(C2NC(=O)c3ccccc3N2)cc1 (centres undefined) | > 100 µM | > 100 | > 100 µM | > 30 µM | 3.38 | > 100 µM | > 100 µM | > 100 µM | > 100 | > 26.5 µM | – | – | – | – | – | – | – | – | – | –
Cc1ccc(NC(=O)Nc2c(Cl)cccc2Cl)cn1 | 76.6 µM | > 100 | > 100 µM | 6.89 µM | > 100 | 30.9 µM | > 100 µM | > 100 µM | > 100 | > 100 µM | 16.2 µM | 26.1 µM | 8.33 µM | 1.94 µM | 5.79 µM | 5.85 µM | 71.4 µM | 13.9 µM | 3.04 µM | 5.78 µM
COc1ccc(C(=O)O[C@H]2[C@H](O[C@H]3[C@@H](O)COC(O[C@H]4C[C@H]5[C@@H]6CC=C7C[C@@H](O)CC[C@]7(C)[C@H]6CC[C@]5(C)[C@H]4[C@H](C)C(=O)CCC(C)C)[C@@H]3OC(C)=O)OC[C@@H](O)[C@@H]2O)c(C)c1 (some centres undefined) | 36.4 µM | 10.3 | 7.51 µM | 0.0282 µM | 0.13 | < 0.01 µM | 0.0621 µM | 19.1 µM | 26.9 | 1.08 µM | 1.26 µM | < 0.01 µM | < 0.01 µM | < 0.01 µM | < 0.01 µM | < 0.01 µM | 0.0196 µM | 0.0133 µM | 1.26 µM | < 0.01 µM
CCN(CC)c1ccc2nc3c4ccccc4c(=O)cc-3n(-c3ccccc3)c2c1 | 9.75 µM | > 100 | 3.6 µM | 7.24 µM | 7.72 | 5.83 µM | 2.9 µM | 0.87 µM | 5.85 | 4.52 µM | 2.66 µM | 3.32 µM | 1.08 µM | 2.37 µM | 2.33 µM | 1.94 µM | 1.12 µM | 0.194 µM | 1.04 µM | 1.32 µM
COc1cccc2nc3ccccc3nc12 | > 100 µM | > 100 | > 100 µM | > 100 µM | > 100 | > 100 µM | > 100 µM | > 100 µM | > 100 | > 100 µM | – | – | – | – | – | – | – | – | – | –
CCN(CC)CCN1C(=O)C2C3C(=O)CC(C)(CC3C)C2C1=O (centres undefined) | > 100 µM | > 100 | > 100 µM | > 100 µM | > 100 | > 100 µM | > 100 µM | > 100 µM | > 100 | > 100 µM | > 100 µM | > 100 µM | > 100 µM | > 100 µM | > 100 µM | > 100 µM | > 100 µM | > 100 µM | > 100 µM | > 100 µM
NC(=O)CC1(O)C=C(Br)C(=O)C(Br)=C1 | 19 µM | 32.6 | > 61.2 µM | 46 µM | 0.434 | 4.05 µM | 4.06 µM | 7.87 µM | 19.7 | 2.96 µM | 6.05 µM | 18.1 µM | 26.1 µM | 17.8 µM | 0.194 µM | 1.9 µM | 1.9 µM | 2.57 µM | 5.84 µM | 0.94 µM
COc1ccc(-c2[nH]nc(N)c2-c2cc(OC)c3c(c2)OCO3)cc1 | > 100 µM | > 100 | > 100 µM | 5.21 µM | 38.8 | 16.1 µM | > 100 µM | > 100 µM | > 100 | > 100 µM | 5.6 µM | 5.23 µM | 5.65 µM | 2.01 µM | 3.47 µM | 3.63 µM | 5.77 µM | 6.52 µM | 9.09 µM | 3.98 µM
O=C1C=CC(=Nc2cccc3c(N=C4C=CC(=O)O4)cccc23)O1 | > 100 µM | > 100 | > 100 µM | > 100 µM | – | 50 µM | 55.6 µM | > 100 µM | 35.2 | 35.5 µM | – | – | – | – | – | – | – | – | – | –
Nc1cc(C(F)(F)F)c(-c2cc(N3CCOCC3)nc(N3CCOCC3)n2)cn1 | 9.96 µM and > 33.1 µM | > 100 | 4.31 µM and 4.87 µM | 1.55 µM and 5.2 µM | > 100 | 2.83 µM and 3.26 µM | > 7.31 µM and 4.25 µM | 0.77 µM and 1.31 µM | – | 4.05 µM and > 24.3 µM | 1.22 µM and 1.79 µM | 2.28 µM and 2.71 µM | 0.385 µM and 0.793 µM | 0.313 µM and 0.522 µM | 1.56 µM and 1.49 µM | 0.561 µM and 0.65 µM | 0.59 µM and 0.417 µM | 0.145 µM and 0.273 µM | 0.721 µM and 1.22 µM | 0.441 µM and 0.806 µM
COc1ccccc1/C=C/C1=C(C)CCC(c2ccccc2OC)C1C (centres undefined) | 0.868 µM | > 100 | 19.3 µM | 0.708 µM | > 100 | – | > 89.8 µM | > 100 µM | > 100 | 7.69 µM | 0.22 µM | 0.226 µM | 0.153 µM | 0.112 µM | 0.0684 µM | 0.11 µM | – | 4.36 µM | 0.119 µM | 0.157 µM
N#Cc1ccccc1C#C/C=C\C#CC#C/C=C\C#Cc1ccccc1C#N | > 100 µM | > 100 | 43.5 µM | 78.8 µM | > 100 | 68.2 µM | > 100 µM | 46.5 µM | > 100 | 73.4 µM | 29.3 µM | 7.27 µM | 16.5 µM | 5.38 µM | 4.95 µM | 15 µM | 52.7 µM | 10.3 µM | 16.5 µM | 20.1 µM
O=C(COc1ccc(OCC(=O)N2C(=O)CN(c3ccccc3)C2=S)cc1)N1C(=O)CN(c2ccccc2)C1=S | > 100 µM | > 100 | > 100 µM | > 100 µM | – | > 100 µM | > 100 µM | > 100 µM | > 100 | > 100 µM | > 25 µM | > 25 µM | > 25 µM | > 25 µM | – | > 25 µM | > 25 µM | > 25 µM | > 25 µM | > 25 µM
